Test results: US20160237450A1, “METHOD FOR ENHANCING DROUGHT TOLERANCE IN PLANTS” (Plant Response Biotech S.L., priority 2015, published 2016)

How the values were obtained:
Format in all cases: in vivo
pepper plants ('Murano') = assay: Pepper plant survival under extreme drought
Description: (§1) For each drought or limited water experiment 480 seeds (of either pepper, barley, tomato, cucumber or corn) were sown, producing 384 plants in 512 cm^3 pots (4 plants per pot). Plants were grown under chamber conditions at 21° C. for 3 weeks. Then, the plants were moved to a greenhouse, where average temperature was 25° C. to 28° C. Spray and irrigation treatments as described herein were done when the plants had two extended leaves and the next pair of leaves were coming up.
(§2) Treatments: Twelve pots (containing 48 plants) were irrigated with 40 ml of either: water, 0.1 g/L TMAO di-hydrate solution, 1.0 g/L TMAO di-hydrate solution, or 5.5 g/L TMAO di-hydrate solution. Another set of 12 pots containing 48 plants were sprayed with 40 ml of either water (3.3 ml in average per pot), a solution containing 0.1 g/L TMAO di-hydrate solution, 1.0 g/L TMAO di-hydrate, or 5 g/L, or 10 g/L TMAO di-hydrate. Further sets of 12 pots containing 48 plants were both sprayed with each initial solution TMAO di-hydrate solution and further irrigated with the same TMAO di-hydrate solutions used in the control water sprayed plants. All pots were also watered with 40 ml of water. The sprayed plants were watered with the same volume of water as the “irrigated plants). The pots were located on plastic glass to maintain constant moisture and to avoid liquid spillage during watering. Trays containing the pots were located on greenhouse tables. The distribution of the trays on the table and the position on the pots in the tray was changed every week to avoid position effects.
(§3) After the treatments described above, the plants were not watered until the pots completely lost their moisture, taking about 4 to 8 days depending on the season, at which point the plants were extremely wilted for the extreme drought experiments. The plants were then watered once with solutions containing the different amounts of TMAO di-hydrate (0.1 g/L, 1.0 g/L, 5 g/L, or 10 g/L) or just water, after which the plants were left to lose their moisture completely again for three consecutive cycles of watering after wilting. For the “extreme drought” experiments plants were allowed to wilt severely before watering and then the plant survival rate was recorded and analyzed.
TMAO di-hydrate applied exogenously, which increases the endogenous content of TMAO as if the plants were overexpressing an FMO protein at least 4 times increases plant survival in pepper plants under extreme drought conditions. ‘Murano’ pepper seeds were sown, grown and treated as described above.

[1] = test system: tomato plants ('Moneymaker'); assay: Tomato stem size under limited water irrigation
Description: as §1, §2
After the treatments described above, for the “limited water” experiments plants were watered with 20 ml of water or solution instead of 40 ml when the first plants started to wilt. The stem length was recorded as analyzed for the limited water experiments in which the plants are watered with 50-30% of the water that the plant requires.
TMAO di-hydrate applied exogenously which increases the endogenous content of TMAO as if the plants were overexpressing an FMO protein at least 4 times increases plant stem size in tomato under limited water irrigation. ‘Moneymaker’ tomato seeds were sown, grown and treated as described.

[2] = TMAO accumulation in barley leaves after spray (NMR); conditions: 1 g/l spray formulated with 0.1% C8-C10 Alkylpolysaccharide, 1 day post spray
Description: At least three independent plants were treated per experiment.
Leaves were harvested and TMAO was determined by NMR.

[3] = test system: barley plants ('Hispanic'); assay: Barley field seed production without irrigation; conditions: no external irrigation
Description: In order to determine the drought or drought stress tolerance after seed treatments with TMAO di-hydrate and germination in the presence of TMAO di-hydrate, barley “Hispanic” seeds, corn “FAO700” seeds, and “Sambro” sunflower seeds were surface sterilized for 3 minutes in ethanol 70%, then rinsed twice and finally included in a pre-treatment solution of 1 g/L TMAO di-hydrate solution (or just water) under shaking for 3 hours at a dose of 1 litre per Kg of seeds. Then, the seeds were sown in randomized plots of 10 sqm in a surface of 2.000 sqm. Chlorophyll content was measured 1 month before harvest. In corn irrigation was applied in half of the plots while the other half only received an initial establishment watering. The barley plots received 200 l of rain per m^2 through the growing season. Some of the plots received a second spray treatment with 1 g/liter of TMAO. […] At least 3 independent plants were treated per experiment.
TMAO di-hydrate applied exogenously which increases the endogenous content of TMAO as if the plants were overexpressing an FMO protein at least 4 times increases seed production in barley grown in the field without irrigation. ‘Hispanic” barley seeds were sown, grown and treated as described. Both, seed treatments (each Kg of seed was soaked in 1 liter of a 1 g/1 L TMAO di-hydrate solution, although smaller volumes of this solution are also effective) and a combination of seed and spray treatments with 1 g/L TMAO di-hydrate increased plant grain production. The field experienced 200 l/m^2 of rain water in total through the season.

[4] = test system: tomato plants ('Moneymaker'); assay: Tomato plant survival under extreme drought
Description: as §1, §2, §3
TMAO di-hydrate applied exogenously, which increases the endogenous content of TMAO as if the plants were overexpressing an FMO protein at least 4 times, increases tomato plant survival under extreme drought conditions, where plants were allowed to fully wilt after three water-wilt cycles. Moneymaker tomato seeds were sown, grown and treated as described above. No statistical differences between modes of application (sprayed or TMAO di-hydrate watered) were observed on this experiment.

[5] = irrigation 0.1 g/L, initial spray 0.1 g/L
[6] = irrigation 0.1 g/L, initial spray 1 g/L
[7] = irrigation 0.1 g/L, initial spray water
[8] = irrigation 1 g/L, initial spray 0.1 g/L
[9] = irrigation 1 g/L, initial spray 1 g/L
[10] = irrigation 1 g/L, initial spray water
[11] = irrigation 5 g/L, initial spray 0.1 g/L
[12] = irrigation 5 g/L, initial spray 1 g/L
[13] = irrigation 5 g/L, initial spray water
[14] = irrigation all regimes, initial spray 0.1 g/L
[15] = irrigation all regimes, initial spray 1 g/L
[16] = irrigation water, initial spray 0.1 g/L
[17] = irrigation water, initial spray 1 g/L
[18] = 1 g TMAO/1 Kg seed + 1 g/L spray

Structure (SMILES): C[N+](C)(C)[O-].O.O [TMAO di-hydrate, trimethylamine N-oxide di-hydrate]
- SURVIVAL RATE (%) (pepper plants ('Murano'); [5]): 33.3 ± 8.3%
- SURVIVAL RATE (%) (pepper plants ('Murano'); [6]): 54.1 ± 8.3%
- SURVIVAL RATE (%) (pepper plants ('Murano'); irrigation 0.1 g/L, initial spray 10 g/L): 83.3 ± 8.3%
- SURVIVAL RATE (%) (pepper plants ('Murano'); [7]): 29.1 ± 8.3%
- SURVIVAL RATE (%) (pepper plants ('Murano'); [8]): 33.3 ± 7.7%
- SURVIVAL RATE (%) (pepper plants ('Murano'); [9]): 33.3 ± 7.7%
- SURVIVAL RATE (%) (pepper plants ('Murano'); irrigation 1 g/L, initial spray 10 g/L): 37.5 ± 7.7%
- SURVIVAL RATE (%) (pepper plants ('Murano'); [10]): 0.0 ± 7.7%
- SURVIVAL RATE (%) (pepper plants ('Murano'); [11]): 100 ± 3.8%
- SURVIVAL RATE (%) (pepper plants ('Murano'); [12]): 100 ± 3.8%
- SURVIVAL RATE (%) (pepper plants ('Murano'); irrigation 5 g/L, initial spray 10 g/L): 87.5 ± 3.8%
- SURVIVAL RATE (%) (pepper plants ('Murano'); [13]): 95.8 ± 3.8%
- SURVIVAL RATE (%) (pepper plants ('Murano'); [14]): 51.0 ± 3.6%
- SURVIVAL RATE (%) (pepper plants ('Murano'); [15]): 62.5 ± 3.6%
- SURVIVAL RATE (%) (pepper plants ('Murano'); irrigation all regimes, initial spray 10 g/L): 71.8 ± 3.6%
- SURVIVAL RATE (%) (pepper plants ('Murano'); [16]): 37.5 ± 8.1%
- SURVIVAL RATE (%) (pepper plants ('Murano'); [17]): 62.5 ± 8.1%
- SURVIVAL RATE (%) (pepper plants ('Murano'); irrigation water, initial spray 10 g/L): 79.1 ± 8.1%
- AVERAGE STEM SIZE (cm) ([1]; initial treatment 0.1 g/L, irrigations 1 g/L): 12.32 ± 0.56 cm
- AVERAGE STEM SIZE (cm) ([1]; initial treatment 0.1 g/L, irrigations water): 11.06 ± 0.55 cm
- AVERAGE STEM SIZE (cm) ([1]; initial treatment 1 g/L, irrigations 1 g/L): 13.77 ± 0.55 cm
- AVERAGE STEM SIZE (cm) ([1]; initial treatment 1 g/L, irrigations water): 11.59 ± 0.55 cm
- AVERAGE STEM SIZE (cm) ([1]; initial treatment 5 g/L, irrigations 1 g/L): 14.6 ± 0.55 cm
- AVERAGE STEM SIZE (cm) ([1]; initial treatment 5 g/L, irrigations water): 14.2 ± 0.56 cm
- AVERAGE STEM SIZE (cm) ([1]; initial treatment water, irrigations 1 g/L): 12.97 ± 0.55 cm
- TMAO % Control [2]: 822%
- TMAO (μM) in leaves [2]: 4633.2 µM
- % Control (seed production) ([3]; 1 g TMAO/1 Kg seed): 18%
- Average number of Grams per square meter (seed production) ([3]; 1 g TMAO/1 Kg seed): 225.98 ± 11.89 Grams per square meter
- % Control (seed production) [3, 18]: 35%
- Average number of Grams per square meter (seed production) [3, 18]: 256.36 ± 12.78 Grams per square meter
- appearance of treated plants compared to untreated control ([4]; irrigated with 5.5 g/L, 24 hours after drought recovery (FIG. 9)): extremely healthy
- SURVIVAL RATE (%) [4, 5]: 12.5 ± 8.5%
- SURVIVAL RATE (%) [4, 6]: 41.6 ± 8.5%
- SURVIVAL RATE (%) ([4]; irrigation 0.1 g/L, initial spray 5 g/L): 68.9 ± 8.5%
- SURVIVAL RATE (%) [4, 7]: 16.6 ± 8.5%
- SURVIVAL RATE (%) [4, 8]: 0.0 ± 7.5%
- SURVIVAL RATE (%) [4, 9]: 29.1 ± 7.5%
- SURVIVAL RATE (%) ([4]; irrigation 1 g/L, initial spray 5 g/L): 33.3 ± 7.5%
- SURVIVAL RATE (%) [4, 10]: 4.1 ± 7.5%
- SURVIVAL RATE (%) [4, 11]: 12.5 ± 8.0%
- SURVIVAL RATE (%) [4, 12]: 16.6 ± 8.0%
- SURVIVAL RATE (%) ([4]; irrigation 5 g/L, initial spray 5 g/L): 50.0 ± 8.0%
- SURVIVAL RATE (%) [4, 13]: 8.3 ± 8.0%
- SURVIVAL RATE (%) [4, 14]: 12.5 ± 4.1%
- SURVIVAL RATE (%) [4, 15]: 37.5 ± 4.1%
- SURVIVAL RATE (%) ([4]; irrigation all regimes, initial spray 5 g/L): 56.6 ± 4.1%
- SURVIVAL RATE (%) [4, 16]: 29.1 ± 9.1%
- SURVIVAL RATE (%) [4, 17]: 62.5 ± 9.1%
- SURVIVAL RATE (%) ([4]; irrigation water, initial spray 5 g/L): 74.2 ± 9.1%
